Results taken from patent publication US20080254152A1, “Methods for Reducing the Effects of Stress on Skin Condition” (priority 2003, published 2008).
“Also recorded” adds a separate entry of the source.

Experiments:
[1] = test system: ICAM-1 expression in HUVECs; test: ICAM-1 expression in HUVECs pre-treated 5 days with dexamethasone, then oxidatively stressed with PMA (ELISA); type: cell-based, Human; conditions: then 1 μM PMA, HUVEC
Method: An in vitro model has been developed to investigate the impact of chronic stress on the inflammatory status of endothelial cells. • a. Cells are grown in 6-well (9.5 cm^2) plates. • b. […] Tissue culture supernatant and cell pellets are harvested at timepoint T0. • d. The cells are oxidatively stressed with 1 μM Phorbol Myristate Acetate (PMA). • e. Tissue culture supernatant and cell pellets were harvested at 6, 24 and 48 hours (T6, T24 and T48, respectively) post-PMA treatment. • f. All tissue culture supernatant was assayed for Lactate Dehydrogenase (LDH), as a measure of cytotoxicity, and Interleukin-6 synthesis. • g. All cells were counted (Beckman Coulter Counter) and pelleted and cell lysate assayed for ICAM-1 expression (Intra Cellular Adhesion Molecule 1).
HUVEC cells (Human umbilical vein endothelial cells, TCS Biologicals) were cultured and passaged in EGM-2 (Endothelial growth medium, Biowhittaker) supplemented with heparin, VEGF (vascular endothelial growth factor), gentamicin sulphate, ascorbic acid, HEGF (Human endothelial growth factor), hydrocortisone, HFGF-B (Human fibroblast growth factor B), R3-IGF-1 (long R insulin-like growth factor 1) and FBS (foetal bovine serum).
Cells were routinely plated out in 6-well tissue culture dishes, at a seeding density of ˜5000 cells/cm^2 in 2 ml complete medium/well, 48 hours before starting the experiment, and incubated at 37° C. in 5% CO2.
Pre-treatment and test solutions were prepared in EGM-2 containing all supplements except hydrocortisone.
Following this, the cells were oxidatively stressed for 24 hours with 1 μM PMA (Sigma P8139).
Receptor antagonists were added to the cells during the pre-treatment period. These included the Glucocorticoid Receptor Antagonist; 2 μM Mifepristone (Sigma M8046) and two CRH receptor antagonists; 200 nM Astressin (Sigma A4933) and 200 nM α-helical CRF peptide antagonist (Sigma C2917).
Any change in cell morphology was noted before the cells were harvested. Both the tissue culture supernatant and the endothelial cells were harvested after the five-day pre-treatment period (T0), at 6 hours and 24 hours after addition of PMA (T6 and T24) and at 24 hours after removal of the PMA (T48). All tissue culture supernatants were stored at −20° C.
All cell pellets were lysed on ice for 30 minutes in 1 ml cell lysis buffer per 2.5×10^6 cells. The lysis buffer contained 1% NP-40, 0.1% sodium deoxycholate, 0.1% SDS, 6 mM sodium chloride and 0.05M Tris at pH 7.6. Protease inhibitor cocktail ([…]; Sigma P8340) was added prior to use at a level of 10 μl per ml of lysis buffer. The partially lysed cell pellets were completely homogenised with a pellet pestle and unwanted cell debris removed by centrifugation for 20 minutes at 20,000 g at 4° C. The clarified cell lysate was frozen at −80° C. until needed.
The total protein concentration of each cell lysate was measured using the Pierce BCA protein assay kit. A set of eight standard solutions ranging from 0 to 1200 μg/ml protein was prepared from the supplied 2 mg/ml BSA stock solution. 10 μl of standard or cell lysate was added to duplicate wells of a flat-bottomed, 96-well microtitre plate. The reagent solution was prepared according to the kit instructions from 50 parts reagent A and 1 part reagent B. 200 μl of the final reagent was added to each well of the microtitre plate. The plate was mixed, covered and incubated at 37° C. for 30 minutes and absorbance read at 562 nm.
ICAM-1 protein in each cell lysate was estimated using the Human sICAM-1 DuoSet ELISA kit (R&D Systems DY720) according to the manufacturer's instructions.
The capture antibody was diluted to a final concentration of 4 μg/ml in PBS and 100 μl was used to coat each well of a 96-well microtitre plate overnight at room temperature. The plate was then washed three times with wash buffer (0.05% Tween 20 in PBS).

[2] = test system: procollagen-1 expression in human neonatal dermal fibroblast cells; test: Procollagen I C-peptide EIA in neonatal-derived human dermal fibroblasts after chronic dexamethasone and PMA; type: cell-based; conditions: agent added during dexamethasone pre-treatment; dermal fibroblasts
Method: (§1) In this study, to understand better the effect of chronic stress on dermal matrix remodelling in the skin, we have therefore measured changes in markers of dermal matrix degradation (MMP-1) and dermal matrix synthesis (Procollagen I) in chronically glucocorticoid-treated primary human dermal fibroblasts, following acute stress with PMA. The experimental approach is similar to that described in example 1 except that the cells tested are dermal fibroblasts and cells are assayed for expression of procollagen-1, MMP-1 and MMP-9 expression.
(§2) Primary human dermal fibroblast cells were cultured and passaged in DMEM (Gibco) supplemented with 10% FBS (foetal bovine serum). Cells were routinely plated out in 6-well tissue culture dishes, at a seeding density of ˜5000 cells/cm^2 in 2 ml complete medium/well for 24 hours, and incubated at 37° C. in 5% CO2. Media was removed and cells grown in DMEM & 1% FBS, 24 hours prior to treatments.
(§3) Pre-treatment and test solutions were prepared in DMEM containing low serum (1% FBS). […] Following this, the cells were oxidatively stressed for 24 hours with 1 μM PMA (Sigma P8139).
Collagen I is synthesised as a precursor molecule, Procollagen I. The amount of free propeptide therefore, reflects stoichiometrically, the amount of collagen I synthesised. The Procollagen Type I C-peptide Enzyme Immunoassay (EIA) kit allows for the quantitative determination of Procollagen Type I C-peptide (PIP).
Eight PIP standards were prepared in sample diluent at concentrations ranging from 0 to 640 ng/ml. 100 μl of antibody-Peroxidase conjugate solution and 20 μl of cell lysate (1 μg protein) or standard was added to duplicate wells. The plate was sealed and incubated at 37° C. for 3 hours before being washed four times with 400 μl of PBS. Each well then received 100 μl of substrate solution and the plate incubated at room temperature, on the benchtop, for 15 minutes. After this period, 100 μl stop solution was added to each well and absorbance measured at 450 nm with a plate reader.
A standard curve was plotted of mean absorbance versus PIP concentration and the line of best fit calculated by regression analysis. The unknown concentration of PIP in all the samples was estimated from this.
(§4) The same methods were used as described in Example 2, except that various test agents were added to the cells during the pre-treatment period.

[3] = test system: MMP-1 expression in human neonatal dermal fibroblast cells; test: Active MMP-1 in neonatal-derived human dermal fibroblasts after chronic dexamethasone and PMA; type: cell-based; conditions: agent added during dexamethasone pre-treatment; dermal fibroblasts
Method: as §1, §2, §3
MMP-1 and MMP-9 protein in each cell supernatant was estimated using the Human active MMP-1 and MMP-9 Fluorokine enzyme kit (R&D Systems F1M00 and F9M00, respectively), according to the manufacturer's instructions.
Six MMP-1 and MMP-9 standards were prepared in calibrator diluent at concentrations ranging from 0.39 to 12.5 ng/ml and 0.25 to 16 ng/ml, respectively. 100 μl of assay diluent and 150 μl of tissue culture supernatant or standard was added to duplicate wells. The plate was incubated at room temperature for 3 hours on a horizontal orbital plate shaker before being washed four times with wash buffer. 200 μl of APMA was added to each well and the plate incubated at 37° C. for 2 hours in a humidified environment and protected from the light. The plate was washed as before. Each well received 200 μl of substrate solution and the plate incubated at 37° C. for 17-20 hours in a humidified environment and protected from the light. The relative fluorescence unit (RFU) of each well was determined using a fluorescence plate set with 1×20 mS integration time, plate speed ˜6; excitation wavelength set to 320 nm and emission wavelength set to 405 nm.
A standard curve was plotted of mean RFU versus MMP-1 and MMP-9 concentration (respectively), and the line of best fit calculated by regression analysis. The unknown concentration of either active MMP-1 or MMP-9 protein in all of the samples was estimated from this.
as §4

[4] = agent 10 μM during 5-day 1 μM dexamethasone pre-treatment
[5] = agent 1 μM during 5-day 1 μM dexamethasone pre-treatment

Compound | Effective? (suppression of ICAM-1 synthesis in chronically stressed endothelial cells) [1, 4] | Effect on glucocorticoid effects on levels of procollagen expression following PMA-induced acute stress [2] | Effective? (suppression of ICAM-1 synthesis in chronically stressed endothelial cells) [1, 5] | Effect on glucocorticoid effects on levels of MMP-1 expression following PMA-induced acute stress [3] | further results
Oc1ccc(C=Cc2cc(O)cc(O)c2)cc1 [Resveratrol] | No |  |  |  | 
COc1cc(/C=C/C(=O)CC(=O)/C=C/c2ccc(O)c(OC)c2)ccc1O [Curcumin] |  | inhibited the effects of glucocorticoid | Yes | inhibited the effects of glucocorticoid | 
CC(C)CC[C@@H](O)[C@@H](C)[C@H]1CC[C@H]2[C@@H]3CC=C4C[C@@H](O)CC[C@]4(C)[C@H]3CC[C@]12C [22-OH-cholesterol, 22-(R)-Hydroxycholesterol] |  |  | Yes |  | 
Cc1cccc(Nc2cc(Cl)nc(SCC(=O)O)n2)c1C [WY14643] | No |  |  |  | 
Alliin | No |  |  |  | 
CCNC(=O)CC[C@H](N)C(=O)O [Theanine] | No |  |  |  | 
O=C(O)/C=C/c1ccc(O)c(O)c1 [Caffeic acid] |  |  |  |  | Effective? (suppression of ICAM-1 synthesis in chronically stressed endothelial cells) ([1]; agent 150 μM during 5-day 1 μM dexamethasone pre-treatment): No
C=C1[C@@H](O)[C@@H]2O[C@]3(CC[C@H](/C=C/[C@@H](C)[C@@H]4CC(C)=C[C@@]5(O[C@H](C[C@@](C)(O)C(=O)O)CC[C@H]5O)O4)O3)CC[C@H]2O[C@@H]1[C@@H](O)C[C@H](C)[C@H]1O[C@@]2(CCCCO2)CC[C@H]1C [Okadaic acid] |  |  |  |  | Effective? (suppression of ICAM-1 synthesis in chronically stressed endothelial cells) ([1]; agent 1 nM during 5-day 1 μM dexamethasone pre-treatment): Yes
CC(C)=CCC[C@](C)(O[C@@H]1O[C@H](CO[C@@H]2O[C@H](CO)[C@@H](O)[C@H](O)[C@H]2O)[C@@H](O)[C@H](O)[C@H]1O)[C@H]1CC[C@]2(C)[C@@H]1[C@H](O)C[C@@H]1[C@@]3(C)CC[C@H](O[C@@H]4O[C@H](CO)[C@@H](O)[C@H](O)[C@H]4O[C@@H]4O[C@H](CO)[C@@H](O)[C@H](O)[C@H]4O)C(C)(C)[C@@H]3CC[C@]12C [Ginsenoside Rb1] |  | inhibited the effects of glucocorticoid | Yes | inhibited the effects of glucocorticoid | 
Mevinolin |  |  | Yes |  | 
CC(C)=CCC[C@](C)(O[C@@H]1O[C@H](CO[C@@H]2O[C@@H](CO)[C@H](O)[C@H]2O)[C@@H](O)[C@H](O)[C@H]1O)[C@H]1CC[C@]2(C)[C@@H]1[C@H](O)C[C@@H]1[C@@]3(C)CC[C@H](O[C@@H]4O[C@H](CO)[C@@H](O)[C@H](O)[C@H]4O[C@@H]4O[C@H](CO)[C@@H](O)[C@H](O)[C@H]4O)C(C)(C)[C@@H]3CC[C@]12C [Ginsenoside Rc] |  | inhibited the effects of glucocorticoid | Yes | inhibited the effects of glucocorticoid | 
C/C(=C\CC/C(C)=C/CCC1[C@](C)(O)CC[C@H]2C(C)(C)C(=O)CC[C@]12C)CC/C=C(\C)C(=O)O (stereo partly shown) [Commipheric acid] |  | inhibited the effects of glucocorticoid |  | inhibited the effects of glucocorticoid | Effective? (suppression of ICAM-1 synthesis in chronically stressed endothelial cells) ([1]; agent 10 μg/ml during 5-day 1 μM dexamethasone pre-treatment): Yes
CC#C[C@]1(O)CC[C@H]2[C@@H]3CCC4=CC(=O)CCC4=C3[C@@H](c3ccc(N(C)C)cc3)C[C@@]21C [Mifepristone] |  |  |  |  | ICAM-1 expression compared with cells without chronic GC treatment ([1]; 2 μM mifepristone during chronic 1 μM glucocorticoid pre-treatment): below that seen in cells that had not received chronic GC treatment; Effect on oxidative stress-induced increase in ICAM-1 expression ([1]; 2 μM mifepristone during chronic 1 μM glucocorticoid pre-treatment, FIG. 3): significant reduction; also recorded: completely blocked
